Source: PMC7354438 (Viruses, 2020)
Structures can show the parent of a compound that is named as a salt.

Experiments:
[1] = tested on: hCoV-19/Norway/Trondheim-E9/2020; assay: Drug test: viability of SARS-CoV-2-infected Vero-E6 cells (CellTiter-Glo); format: cell-based; parameters: AUC: unit not given beside the values
[2] = Cytotoxicity in mock-infected Vero-E6 cells (CellTiter-Glo); settings: African green monkey
[3] = tested on: viral genomic and sub-genomic RNAs; assay: Gene expression analysis (RNA sequencing) of drug-treated infected Vero-E6 cells; format: cell-based, SARS-CoV-2; settings: moi 0.1, 24 h, 3 M nelfinavir, 5 M amodiaquine or both
[4] = Drug combination test, mock-infected Vero-E6 cells (CTG); format: cell-based; settings: African green monkey, mock-infected Vero-E6 cells (control), read-out: Relative viability (%); for viability at 72 h, 0.008 uM: single drug 0.008 uM (other drug 0); for viability at 72 h, 0.04 uM: single drug 0.04 uM (other drug 0); for viability at 72 h, 0.2 uM: single drug 0.2 uM (other drug 0); for viability at 72 h, 1 uM: single drug 1.0 uM (other drug 0); for viability at 72 h, 5 uM: single drug 5.0 uM (other drug 0)
[5] = Severe acute respiratory syndrome coronavirus 2, Vero C1008, infected Vero-E6 cells, moi 0.1, 72 h, Mean ± SD, n = 3
[6] = area under the dose-response curve of viability of virus-infected Vero-E6 cells, moi 0.1, 72 h, 7 concentrations, decimal comma
[7] = Severe acute respiratory syndrome coronavirus 2, Vero C1008, 72 h

Molecule | AUC [1, 6] | AUC ([1]; 72 h) | also measured
COC1=CC(c2cc3ccccc3[nH]2)=N/C1=C\c1[nH]c(C)cc1C [Obatoclax (Mesylate), Obatoclax] | – | – | EC50 [1, 5]: 0.3 ± 0.1 µM; CC50 at 72 h ([2]; mock-infected Vero-E6 cells): 2.2 ± 1 µM
COC(=O)C[C@](O)(CCCC(C)(C)O)C(=O)O[C@@H]1C(OC)=C[C@]23CCCN2CCc2cc4c(cc2[C@H]13)OCO4 [Homoharringtonine] | – | – | EC50 [1, 5]: 0.03 ± 0.02 µM; CC50 at 72 h ([2]; mock-infected Vero-E6 cells): 0.36 ± 0.6 µM
CCN(CC)CCCC(C)Nc1c2ccc(Cl)cc2nc2ccc(OC)cc12 (stereo not shown) [Quinacrine dihydrochloride] | 105,63 | – | –
O=c1c(-c2ccc(O)cc2)coc2cc(O[C@@H]3O[C@H](CO)[C@@H](O)[C@H](O)[C@H]3O)cc(O)c12 [Genistin] | 54,1 | – | –
Cc1oncc1C(=O)Nc1ccc(C(F)(F)F)cc1 [Leflunomide] | 47,95 | – | –
Clomiprade hydrochloride | – | 74,69 | –
O=C(Nc1ccc([N+](=O)[O-])cc1Cl)c1cc(Cl)ccc1O [Niclosamide] | 149,52 | – | –
CCN(CC)Cc1cc(Nc2ccnc3cc(Cl)ccc23)ccc1O [Amodiaquine] | – | – | transcription of viral genomic and sub-genomic RNAs [3]: lowered the transcription of viral genomic and sub-genomic RNAs; viability at 72 h, 0.008 uM [4]: 89.1%; viability at 72 h, 0.04 uM [4]: 91.8%; viability at 72 h, 0.2 uM [4]: 76.4%; viability at 72 h, 1 uM [4]: 76.6%; viability at 72 h, 5 uM [4]: 71.5%; EC50 [1, 5]: 4.2 ± 0.2 µM; CC50 at 72 h ([2]; mock-infected Vero-E6 cells): > 30 µM
CC(C)OC(=O)OCOP(=O)(CO[C@H](C)Cn1cnc2c(N)ncnc21)OCOC(=O)OC(C)C [Tenofovir disoproxil fumarate] | 137,2 | – | –
CC[C@@]1(O)C(=O)OCc2c1cc1n(c2=O)Cc2cc3c(CN(C)C)c(O)ccc3nc2-1 [Topotecan] | 124,6 | – | –
C[C@H]1O[C@H](O[C@H]2[C@H](O)[C@@H](O)[C@@H](O)[C@H](O)[C@@H]2O)[C@@H](N)C[C@@H]1NC(=N)C(=O)O [Kasugamycin] | – | 88,55 | –
CS(=O)(=O)O.Cc1ccc2c(c1)c1c3n2CCNC3CCC1 (stereo not shown) [Pirlindole mesylate] | – | 120,4 | –
Cc1c(O)cccc1C(=O)N[C@@H](CSc1ccccc1)[C@H](O)CN1C[C@H]2CCCC[C@H]2C[C@H]1C(=O)NC(C)(C)C [Nelfinavir] | – | – | viability at 72 h, 0.008 uM [4]: 100%; viability at 72 h, 0.04 uM [4]: 100%; viability at 72 h, 0.2 uM [4]: 96.5%; viability at 72 h, 1 uM [4]: 90.2%; viability at 72 h, 5 uM [4]: 80.7%; EC50 [1, 5]: 2.1 ± 0.6 µM; CC50 at 72 h ([2]; mock-infected Vero-E6 cells): 9.7 ± 0.4 µM
Nc1ncnc2c([C@@H]3N[C@H](CO)[C@@H](O)[C@H]3O)c[nH]c12 [BCX4430 (galidesivir), galidesivir] | 94,08 | – | –
CC(C)COCC(CN(Cc1ccccc1)c1ccccc1)N1CCCC1 (stereo not shown) [Bepridil] | 285,95 | – | –
CCC(C)n1ncn(-c2ccc(N3CCN(c4ccc(OCC5COC(Cn6cncn6)(c6ccc(Cl)cc6Cl)O5)cc4)CC3)cc2)c1=O (stereo not shown) [Itraconazole] | 110,18 | – | –
CC(=O)OCC(CCn1cnc2cnc(N)nc21)COC(C)=O [Famciclovir] | 149,52 | – | –
COc1ccc2cc3[n+](cc2c1OC)CCc1cc2c(cc1-3)OCO2 [Berberine] | – | 236,67 | –
CCn1cc(C(=O)O)c(=O)c2cc(F)c(N3CCNCC3)nc21 [Enoxacin] | 118,23 | – | –

Molecule | AUC [1, 6] | AUC ([1]; 72 h) | also measured
CN[C@@H]1C[C@H]2O[C@@](C)([C@@H]1OC)n1c3ccccc3c3c4c(c5c6ccccc6n2c5c31)C(=O)NC4 [Staurosporine] | – | 15,75 | –
CN[C@H]1C(=O)N[C@@H]2Cc3ccc(cc3)Oc3cc4cc(c3O[C@@H]3O[C@H](C(=O)O)[C@@H](O)[C@H](O)[C@H]3NC(=O)CCCCCCCCC(C)C)Oc3ccc(cc3Cl)[C@@H](O)[C@@H]3NC(=O)[C@H](NC(=O)[C@@H]4NC(=O)[C@@H](NC2=O)c2cc(cc(O)c2Cl)Oc2cc1ccc2O)c1ccc(O)c(c1)-c1c(O[C@H]2O[C@H](CO)[C@@H](O)[C@H](O)[C@@H]2O)cc(O)cc1[C@@H](C(=O)NCCCN(C)C)NC3=O [Dalbavancin] | – | 136,29 | –
COc1ccc(C[C@H]2NC[C@H](O)[C@H]2OC(C)=O)cc1 [Anisomycin] | – | 169,33 | –
CCCCOc1cc(C(=O)NCCN(CC)CC)c2ccccc2n1 [Dibucaine] | 214,34 | – | –
CN[C@H](CC(C)C)C(=O)N[C@H]1C(=O)N[C@@H](CC(N)=O)C(=O)N[C@H]2C(=O)N[C@H]3C(=O)N[C@H](C(=O)N[C@H](C(=O)O)c4cc(O)cc(O)c4-c4cc3ccc4O)[C@H](O[C@H]3C[C@](C)(N)[C@@H](O)[C@H](C)O3)c3ccc(c(Cl)c3)Oc3cc2cc(c3O[C@@H]2O[C@H](CO)[C@@H](O)[C@H](O)[C@H]2O[C@H]2C[C@](C)(NCc3ccc(-c4ccc(Cl)cc4)cc3)[C@@H](O)[C@H](C)O2)Oc2ccc(cc2Cl)[C@H]1O [Oritavancin] | – | 163,24 | –
CC12CC3CC(C)(C1)CC(N)(C3)C2 [Memantine] | 115,78 | – | –
CC[C@@H](C(=O)[C@@H](C)[C@@H](O)[C@H](C)[C@@H]1O[C@@H]([C@@H](CC)C(=O)O)CC[C@@H]1C)[C@H]1O[C@]2(C=C[C@@H](O)[C@]3(CC[C@@](C)([C@H]4CC[C@](O)(CC)[C@H](C)O4)O3)O2)[C@H](C)C[C@@H]1C [Salinomycin] | – | – | EC50 [1, 7]: 0.2 ± 0.1 µM; CC50 at 72 h [2]: 13.9 ± 0.3 µM
CC[C@@]1([C@@H]2O[C@@H]([C@H]3O[C@@](O)(CO)[C@H](C)C[C@@H]3C)C[C@@H]2C)CC[C@H]([C@]2(C)CC[C@]3(C[C@H](O)[C@@H](C)[C@@H]([C@@H](C)[C@@H](OC)[C@H](C)C(=O)O)O3)O2)O1 [Monensin] | – | 254,31 | –
CC[C@H]1CN2CCc3cc(OC)c(OC)cc3[C@@H]2C[C@@H]1C[C@H]1NCCc2cc(OC)c(OC)cc21 [Emetine] | – | – | EC50 [1, 7]: < 0.01 µM; CC50 at 72 h [2]: 0.7 ± 0.4 µM
Doxycycline hyclate | – | 143,99 | –
C[C@H]1[C@H](OC(=O)CCC(=O)O)O[C@@H]2O[C@@]3(C)CC[C@H]4[C@H](C)CC[C@@H]1[C@@]24OO3 [Artesunate] | 222,25 | – | –
CCCCNc1cc(C(=O)O)cc(S(N)(=O)=O)c1Oc1ccccc1 [Bumetanide] | 87,85 | – | –
CC(=O)O[C@H]1C[C@H](O[C@H]2[C@@H](O)C[C@H](O[C@H]3[C@@H](O)C[C@H](O[C@H]4CC[C@@]5(C)[C@H](CC[C@@H]6[C@@H]5C[C@@H](O)[C@]5(C)[C@@H](C7=CC(=O)OC7)CC[C@]65O)C4)O[C@@H]3C)O[C@@H]2C)O[C@H](C)[C@H]1O[C@@H]1O[C@H](CO)[C@@H](O)[C@H](O)[C@H]1O [Lanatoside C] | – | 54,25 | –
Nc1nc(O)c2ncn(COC(CO)CO)c2n1 [Ganciclovir] | 243,88 | – | –
CC(C)[C@H](N)C(=O)OCCOCn1cnc2c(=O)[nH]c(N)nc21 [Valaciclovir] | 134,61 | – | –
CC[C@@]1(O)C(=O)OCc2c1cc1n(c2=O)Cc2cc3ccccc3nc2-1 [Camptothecin] | – | 57,75 | –
CN(C)C(=O)COC(=O)Cc1ccc(OC(=O)c2ccc(NC(=N)N)cc2)cc1 [Camostat] | 88,41 | – | –
COc1ccc([C@@H]2Sc3ccccc3N(CCN(C)C)C(=O)[C@@H]2OC(C)=O)cc1 [Diltiazem] | 99,61 | – | –
Nc1ncn([C@@H]2O[C@H](CO)[C@@H](O)[C@H]2O)c(=O)n1 [Azacytidine] | – | 228,06 | –

Molecule | AUC [1, 6] | AUC ([1]; 72 h) | also measured
Nc1ccn(C[C@@H](CO)OCP(=O)(O)O)c(=O)n1 [Cidofovir] | 144,69 | – | –
NC(=O)c1ncn([C@@H]2O[C@H](CO)[C@@H](O)[C@H]2O)n1 [Ribavirin] | 134,26 | – | –
COc1ccc2nc([S@@+]([O-])Cc3ncc(C)c(OC)c3C)[nH]c2c1 [Esomeprazole] | 177,52 | – | –
CCN(CC)CCCC(C)Nc1ccnc2cc(Cl)ccc12 (stereo not shown) [Chloroquine phosphate] | 165,9 | – | –
CNC(=C[N+](=O)[O-])NCCSCc1ccc(CN(C)C)o1 [Ranitidine] | 94,08 | – | –
CC(=O)Oc1ccccc1C(=O)O [Acetylsalicylic acid] | 131,04 | – | –
CNC(=O)c1cc(Oc2ccc(NC(=O)Nc3ccc(Cl)c(C(F)(F)F)c3)cc2)ccn1 [Sorafenib (BAY 43-9006), Sorafenib] | 33,12 | – | –
COC(=O)C1=C(C)NC(C)=C(C(=O)OCCN2CCN(C(c3ccccc3)c3ccccc3)CC2)C1c1cccc([N+](=O)[O-])c1 (stereo not shown) [Manidipine] | 133 | – | –
CCN(CC)CCOc1ccc2c(c1)C(=O)c1cc(OCCN(CC)CC)ccc1-2 [Tilorone (dihydrochloride), Tilorone] | 83,72 | – | –
Ivermectin | – | 66,08 | –
CO[C@H]1C[C@@H]2CC[C@@H](C)[C@@](O)(O2)C(=O)C(=O)N2CCCC[C@H]2C(=O)O[C@H]([C@H](C)C[C@@H]2CC[C@@H](O)[C@H](OC)C2)CC(=O)[C@H](C)/C=C(\C)[C@@H](O)[C@@H](OC)C(=O)[C@H](C)C[C@H](C)/C=C/C=C/C=C/1C [Rapamycin] | – | 46,9 | –
O=C(O)P(=O)(O)O [Foscarnet] | 127,26 | – | –
O=C(O)[C@H]1C2CCC(CC2)[C@@H]1Nc1nc(-c2c[nH]c3ncc(F)cc23)ncc1F [Pimodivir] | 126,91 | – | –
CO[C@@]1(NC(=O)C(C(=O)[O-])c2ccc(O)cc2)C(=O)N2C(C(=O)[O-])=C(CSc3nnnn3C)CO[C@@H]21.[Na+].[Na+] (stereo partly shown) [Moxalactam sodium salt] | – | 18,13 | –
CCN(CCO)CCCC(C)Nc1ccnc2cc(Cl)ccc12 (stereo not shown) [Hydroxychloroquine] | 147,63 | – | –
O=C1[C@H](CC[C@H](O)c2ccc(F)cc2)[C@@H](c2ccc(O)cc2)N1c1ccc(F)cc1 [Ezetimibe] | 138,39 | – | –
CN(Cc1cc(Br)cc(Br)c1N)C1CCCCC1 [Bromhexine HCl] | 124,95 | – | –
CC[C@H](CO)Nc1nc(NCc2ccccc2)c2ncn(C(C)C)c2n1 [Roscovitine] | – | 137,97 | –
